Our source for the EC50 values is patent US9499550B2 (BRISTOL-MYERS SQUIBB COMPANY, priority 2012, dated 2016).

Test [1] deals with HCV genotype 1b (Con1) replicon in HUH-7 cells. In words: HCV replicon luciferase reporter assay, genotype 1b. In kind it is cell-based. Particulars: Hepatitis C virus, Huh-7, 72 h, HCV genotype 1b replicon luciferase, 3 days incubation. In short, it runs like this:
(§1)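 Replicon inhibition for both genotypes was measured as Renilla luciferase signal (EnduRen, 7.5 μM final, 2 h) after 3-day, 37° C exposure of replicon-bearing HUH-7 cells in 4% FCS DMEM, 0.5% DMSO. The 1b construct carries S1179I; the 1a H77 construct carries P1496L and S2204I. Twenty-point, 3-fold dilutions were fitted four-parametrically for EC50, and CC50 was taken from multiplexed Cell Titer-Blue.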

The subject of test [2] is HCV genotype 1a (H77 strain) replicon in HUH-7 cells. In words: HCV replicon luciferase reporter assay, genotype 1a. In kind it is cell-based. Particulars: Hepatitis C virus, Huh-7, 72 h, HCV genotype 1a replicon luciferase, 3 days incubation. In short, it runs like this: as §1
Where [3] appears, read: GETYPE1B, read-out: LE_1b (EC50, range).
The mark [4] stands for this setting: GETYPE1A, read-out: LE_1a (EC50, range).

Read-outs that look alike come from different tables or passages of the source. A value given as a limit tells only on which side of the number the result lay.

Take `CC[C@@H]1C[C@H](C)CC/C=C\[C@@H]2C[C@@]2(C(=O)NS(=O)(=O)C2(C)CC2)NC(=O)[C@@H]2C[C@@H](Oc3nccc4c5c(ccc34)OCCO5)CN2C(=O)[C@H]1NC(=O)OC(C)(C)C` [Compound 5340, tert-butyl ((2R,6S,7R,9R,13aS,14aR,16aS,Z)-2-((2,3-dihydro-[1,4]dioxino[2,3-f]isoquinolin-7-yl)oxy)-7-ethyl-9-methyl-14a-(((1-methylcyclopropyl)sulfonyl)carbamoyl)-5,16-dioxo-1,2,3,5,6,7,8,9,10,11,13a,14,14a,15,16,16a-hexadecahydrocyclopropa[e]pyrrolo[1,2-a][1,4]diazacyclopentadecin-6-yl)carbamate]: the EC50 was below 5.46 nM in test [1] (read-out: LE_1b (EC50, range)) and below 5.46 nM in test [2] (read-out: LE_1a (EC50, range)).
For `CC[C@@H]1C[C@H](C)CC/C=C\[C@@H]2C[C@@]2(C(=O)NS(=O)(=O)C2CC2)NC(=O)[C@@H]2C[C@@H](Oc3nccc4c5c(ccc34)OCCO5)CN2C(=O)[C@H]1NC(=O)OC(C)(C)C` [Compound 5341, tert-butyl ((2R,6S,7R,9R,13aS,14aR,16aS,Z)-14a-((cyclopropylsulfonyl)carbamoyl)-2-((2,3-dihydro-[1,4]dioxino[2,3-f]isoquinolin-7-yl)oxy)-7-ethyl-9-methyl-5,16-dioxo-1,2,3,5,6,7,8,9,10,11,13a,14,14a,15,16,16a-hexadecahydrocyclopropa[e]pyrrolo[1,2-a][1,4]diazacyclopentadecin-6-yl)carbamate], the EC50 in test [1] (read-out: LE_1b (EC50, range)) was below 5.46 nM; in test [2] (read-out: LE_1a (EC50, range)), below 5.46 nM.
As to `C[C@@H]1CC/C=C\[C@@H]2C[C@@]2(C(=O)NS(=O)(=O)C2(CF)CC2)NC(=O)[C@@H]2C[C@@H](Oc3nccc4c5c(ccc34)OCCO5)CN2C(=O)[C@@H](NC(=O)OC(C)(C)C(C)(F)F)[C@H](C)C1` [Compound 5342], the concentration for a half-maximal effect (EC50) in test [1] (setting [3]) and in test [2] (setting [4]) was below 5.46 nM in each case.
For the compound `COc1ccc2c(O[C@@H]3C[C@H]4C(=O)N[C@]5(C(=O)NS(=O)(=O)C6(C)CC6)C[C@H]5/C=C\CC[C@@H](C)C[C@@H](C)[C@H](NC(=O)OC(C)(C)C)C(=O)N4C3)nc(-c3ccc(OC(C)C)cc3)c(OC)c2c1` [Compound 5344, tert-butyl ((2R,6S,7R,9R,13aS,14aR,16aS,Z)-2-((3-(4-isopropoxyphenyl)-4,6-dimethoxyisoquinolin-1-yl)oxy)-7,9-dimethyl-14a-(((1-methylcyclopropyl)sulfonyl)carbamoyl)-5,16-dioxo-1,2,3,5,6,7,8,9,10,11,13a,14,14a,15,16,16a-hexadecahydrocyclopropa[e]pyrrolo[1,2-a][1,4]diazacyclopentadecin-6-yl)carbamate], the half-maximal effective concentration (EC50) is below 5.46 nM in test [1] (read-out: LE_1b (EC50, range)) and below 5.46 nM in test [2] (read-out: LE_1a (EC50, range)).
For the compound `COc1ccc2c(O[C@@H]3C[C@H]4C(=O)N[C@]5(C(=O)NS(=O)(=O)C6(C)CC6)C[C@H]5/C=C\CC[C@H](C)C[C@@H](C)[C@H](NC(=O)OC(C)(C)C(C)(F)F)C(=O)N4C3)nc(-c3ccc(OC(C)C)cc3)c(OC)c2c1` [Compound 5345, 3,3-difluoro-2-methylbutan-2-yl((2R,6S,7R,9S,13aS,14aR,16aS,Z)-2-((3-(4-isopropoxyphenyl)-4,6-dimethoxyisoquinolin-1-yl)oxy)-7,9-dimethyl-14a-(((1-methylcyclopropyl)sulfonyl)carbamoyl)-5,16-dioxo-1,2,3,5,6,7,8,9,10,11,13a,14,14a,15,16,16a-hexadecahydrocyclopropa[e]pyrrolo[1,2-a][1,4]diazacyclopentadecin-6-yl)carbamate], the 50% effective concentration (EC50) is below 5.46 nM in test [1] (read-out: LE_1b (EC50, range)) and 4.82 to 103 nM in test [2] (read-out: LE_1a (EC50, range)).
On the same counts, the results for `COc1ccc2c(O[C@@H]3C[C@H]4C(=O)N[C@]5(C(=O)NS(=O)(=O)C6(C)CC6)C[C@H]5/C=C\CC[C@@H](C)C[C@@H](C)[C@H](NC(=O)OC(C)(C)C(C)(F)F)C(=O)N4C3)nc(-c3ccc(OC(C)C)cc3)c(OC)c2c1` [Compound 5346, 3,3-difluoro-2-methylbutan-2-yl((2R,6S,7R,9R,13aS,14aR,16aS,Z)-2-((3-(4-isopropoxyphenyl)-4,6-dimethoxyisoquinolin-1-yl)oxy)-7,9-dimethyl-14a-(((1-methylcyclopropyl)sulfonyl)carbamoyl)-5,16-dioxo-1,2,3,5,6,7,8,9,10,11,13a,14,14a,15,16,16a-hexadecahydrocyclopropa[e]pyrrolo[1,2-a][1,4]diazacyclopentadecin-6-yl)carbamate] are below 5.46 nM and below 5.46 nM.
On the same counts, the results for `COc1ccc2c(O[C@@H]3C[C@H]4C(=O)N[C@]5(C(=O)NS(=O)(=O)C6(C)CC6)C[C@H]5/C=C\CC[C@@H](C)C[C@@H](C)[C@H](NC(=O)OC(C)(C)C(F)(F)F)C(=O)N4C3)nc(-c3ccc(OC(C)C)cc3)c(OC)c2c1` [Compound 5348, 1,1,1-trifluoro-2-methylpropan-2-yl((2R,6S,7R,9R,13aS,14aR,16aS,Z)-2-((3-(4-isopropoxyphenyl)-4,6-dimethoxyisoquinolin-1-yl)oxy)-7,9-dimethyl-14a-(((1-methylcyclopropyl)sulfonyl)carbamoyl)-5,16-dioxo-1,2,3,5,6,7,8,9,10,11,13a,14,14a,15,16,16a-hexadecahydrocyclopropa[e]pyrrolo[1,2-a][1,4]diazacyclopentadecin-6-yl)carbamate] are below 5.46 nM and below 5.46 nM.
On the same counts, the results for `COc1ccc2c(O[C@@H]3C[C@H]4C(=O)N[C@]5(C(=O)NS(=O)(=O)C6(C)CC6)C[C@H]5/C=C\CC[C@H](C)C[C@@H](C)[C@H](NC(=O)O[C@H](C)C(F)(F)F)C(=O)N4C3)nc(-c3ccc(OC(C)C)cc3)c(OC)c2c1` [Compound 5349, (R)-1,1,1-trifluoropropan-2-yl ((2R,6S,7R,9S,13aS,14aR,16aS,Z)-2-((3-(4-isopropoxyphenyl)-4,6-dimethoxyisoquinolin-1-yl)oxy)-7,9-dimethyl-14a-(((1-methylcyclopropyl)sulfonyl)carbamoyl)-5,16-dioxo-1,2,3,5,6,7,8,9,10,11,13a,14,14a,15,16,16a-hexadecahydrocyclopropa[e]pyrrolo[1,2-a][1,4]diazacyclopentadecin-6-yl)carbamate] are below 5.46 nM and 4.82 to 103 nM.
In the case of `COc1ccc2c(O[C@@H]3C[C@H]4C(=O)N[C@]5(C(=O)NS(=O)(=O)C6(C)CC6)C[C@H]5/C=C\CC[C@@H](C)C[C@@H](C)[C@H](NC(=O)O[C@H](C)C(F)(F)F)C(=O)N4C3)nc(-c3ccc(OC(C)C)cc3)c(OC)c2c1` [Compound 5350, (R)-1,1,1-trifluoropropan-2-yl ((2R,6S,7R,9R,13aS,14aR,16aS,Z)-2-((3-(4-isopropoxyphenyl)-4,6-dimethoxyisoquinolin-1-yl)oxy)-7,9-dimethyl-14a-(((1-methylcyclopropyl)sulfonyl)carbamoyl)-5,16-dioxo-1,2,3,5,6,7,8,9,10,11,13a,14,14a,15,16,16a-hexadecahydrocyclopropa[e]pyrrolo[1,2-a][1,4]diazacyclopentadecin-6-yl)carbamate], the 50% effective concentration (EC50) in test [1] (read-out: LE_1b (EC50)) was 1.48 nM; in test [1] (read-out: LE_1b (EC50, range)) it was below 5.46 nM; in test [2] (read-out: LE_1a (EC50)), 2.12 nM; in test [2] (read-out: LE_1a (EC50, range)), below 5.46 nM.
Consider `COc1cnc(O[C@@H]2C[C@H]3C(=O)N[C@]4(C(=O)NS(=O)(=O)C5CCC5)C[C@H]4/C=C\CC[C@@H](C)C[C@@H](C)[C@H](NC(=O)OC(C)(C)C)C(=O)N3C2)c2ccccc12` [Compound 5352], for which the EC50 in test [1] (read-out: LE_1b (EC50, range)) was below 5.46 nM; in test [2] (read-out: LE_1a (EC50, range)), below 5.46 nM.
On to `COc1cnc(O[C@@H]2C[C@H]3C(=O)N[C@]4(C(=O)NS(=O)(=O)C5CCC5)C[C@H]4/C=C\CC[C@H](C)C[C@@H](C)[C@H](NC(=O)OC(C)(C)C(F)(F)F)C(=O)N3C2)c2ccccc12` [Compound 5353, 1,1,1-trifluoro-2-methylpropan-2-yl((2R,6S,7R,9S,13aS,14aR,16aS,Z)-14a-((cyclobutylsulfonyl)carbamoyl)-2-((4-methoxyisoquinolin-1-yl)oxy)-7,9-dimethyl-5,16-dioxo-1,2,3,5,6,7,8,9,10,11,13a,14,14a,15,16,16a-hexadecahydrocyclopropa[e]pyrrolo[1,2-a][1,4]diazacyclopentadecin-6-yl)carbamate], for which the 50% effective concentration (EC50) is below 5.46 nM in test [1] (read-out: LE_1b (EC50, range)) and 4.82 to 103 nM in test [2] (read-out: LE_1a (EC50, range)).
Take `COc1cnc(O[C@@H]2C[C@H]3C(=O)N[C@]4(C(=O)NS(=O)(=O)C5CCC5)C[C@H]4/C=C\CC[C@@H](C)C[C@@H](C)[C@H](NC(=O)OC(C)(C)C(F)(F)F)C(=O)N3C2)c2ccccc12` [Compound 5354, 1,1,1-trifluoro-2-methylpropan-2-yl((2R,6S,7R,9R,13aS,14aR,16aS,Z)-14a-((cyclobutylsulfonyl)carbamoyl)-2-((4-methoxyisoquinolin-1-yl)oxy)-7,9-dimethyl-5,16-dioxo-1,2,3,5,6,7,8,9,10,11,13a,14,14a,15,16,16a-hexadecahydrocyclopropa[e]pyrrolo[1,2-a][1,4]diazacyclopentadecin-6-yl)carbamate]: the concentration for a half-maximal effect (EC50) in test [1] (read-out: LE_1b (EC50, range)) is below 5.46 nM; in test [2] (read-out: LE_1a (EC50, range)), below 5.46 nM.
Consider `CCOc1cnc(O[C@@H]2C[C@H]3C(=O)N[C@]4(C(=O)NS(=O)(=O)C5(CF)CC5)C[C@H]4/C=C\CC[C@@H](C)C[C@@H](C)[C@H](NC(=O)OC(C)(C)C(C)(F)F)C(=O)N3C2)c2ccccc12` [Compound 5355], for which the EC50 in test [1] (setting [3]) and in test [2] (setting [4]) was 1.01 to 5 nM in each case.
